Source: US20250387392A1, “PYRIDAZINONE COMPOSITIONS FOR THE TREATMENT OF NEUROMUSCULAR CONDITIONS” (Edgewise Therapeutics, Inc., priority 2022, published 2025)

Key:
[1] = Plasma PK of Compound 1 in adults with BMD (ARCH open label study); type: in vivo, human; set-up: Mean AUC for the Compound 1 Plasma PK levels: unit not given here; settings: for Mean AUC for the Compound 1 Plasma PK levels: BMD patients
Experimental: FIG. 4 depicts plasma levels of Compound 1 and step count of BMD patients after four months of dosing.
(§1) FIGS. 2 to 8 depict positive 4-month interim results from the ongoing open label, single-center study assessing the safety, tolerability, and impact on muscle damage biomarkers, and pharmacokinetics (PK) of Compound 1 in adults with BMD. Twelve adults with BMD enrolled in the ARCH study, were dose escalated to daily 15 mg oral doses of Compound 1 at night after having initially received a 10 mg dose during the first 2 months of the study. […] All eligible patients have subsequently been dose escalated to 20 mg daily as per protocol.
(§2) FIGS. 10 to 13 depict promising 12-month results from the ongoing open label, single-center study assessing the safety, tolerability, and impact on muscle damage biomarkers, and pharmacokinetics (PK) of Compound 1 in adults with BMD. The different dosing regimens depicted in FIGS. 10A-10C, FIG. 111B, and FIGS. 12A-12F were carried out in three cohorts. One cohort has been dosed with 20 mg of Compound 1 for 12 months. A second cohort has been dosed with 15 mg of Compound 1 for 6 months. A third cohort has been dosed with 10 mg of Compound 1 for 2 months. […] Therefore, no treatment plans were discontinued due to AEs.
(§3) In parallel, the plasma concentrations of Compound 1 were also monitored across different dosing regimens. For group with higher dosage (e.g., the 20 mg group), there were patients with high exposures or low exposures. It was unexpected that the patients with high exposures reached to a range of plasma concentration after dosing with 20 mg/day, which was more than 4-fold higher than the target exposures predicted from preclinical models. It is also worth noting that Compound 1 was enriched in muscle. The target muscle concentration of Compound 1 from patients with lower plasma concentration were 1,000-4000 ng/g from preclinical experiments. Using muscle biopsy data from a Phase 1 multiple ascending dose (MAD) study, this equates to approximately 15-70 ng/ml in BMD. In other words, Compound 1 was enriched by about 60 fold in muscle compared to plasma.

[2] = Muscle versus plasma concentration, muscle biopsy data from Phase 1 multiple ascending dose (MAD) study; type: in vivo, human
Experimental: as §3

[3] = test system: adults with BMD; test: Safety and tolerability in adults with BMD (ARCH open label study); type: in vivo, human
Experimental: as §1, §2

[4] = test system: creatine kinase (CK); test: Muscle damage biomarker creatine kinase in adults with BMD (activity assay / SOMAscan); type: in vivo, human
Experimental: as §1
(§4) Treatment with Compound 1 led to a significant decrease in key biomarkers of muscle damage when assessed by laboratory assays. Importantly, CK and fast skeletal muscle troponin I were reduced by an average of 29% and 73%, respectively, after 4 months (FIG. 5).
(§5) Several biomarkers of muscle damage were tested to evaluate the efficacy of Compound 1 with different dosing regimens.
(§6) Changes in muscle injury biomarkers such as creatine kinase (CK) or fast skeletal muscle troponin I (TNNI2) were assessed in clinical trial participants. The abundance of the biomarkers were measured by plasma proteomics (SOMAscan) in short- (1-2 months), mid- (3-4 months), or long-term (6-12 months) treatment. FIG. 14A illustrates the design of this study. 12 BMD participants, 7 of whom participated in the Phase I MAD study (Example 2), were enrolled and initially treated with 10 mg of Compound 1 daily, with dose-escalation from 10 mg to 20 mg daily as shown. Blood draws were taken at pre-dose baseline, then at regular intervals thereafter for analysis by SOMAscan, as well as quantification of CK activity or TNNI2 concentration by an activity assay or ELISA. SOMAscan is a multistep modified aptamer-based assay for highOthroughpu, sensitive, and unbiased biomarker measurement. Proteins in the samples were selectively bound with fluorescent aptamers, which were then measured on a chip array to yield values proportion to absolute concentrations.
(§7) In this study, SOMAscan was correlated to CK and TNNI2 to allow for direct conversion to absolute concentrations as well as used to identify large-scale proteomic differences between short- and long-term treatment with Compound 1. FIG. 14B illustrates validation of CK and TNNI2, where a strong correlation between SOMAscan and absolute measurements of CK (left) and TNNI2 (right) was observed. FIG. 14C illustrates SOMAscan-quantified CK and TNNI2 in blood. […] Indicated significance was for all values at that treatment point relative to pre-dose baseline. FIG. 14D and FIG. 14E illustrate the effect of Compound 1 on muscle injury proteins. SOMAscan was used to analyze the effects of treatment on a set of proteins identified to correlate with bona-fide contraction-induced skeletal muscle injury (FIG. 14D).

[5] = test system: fast skeletal muscle troponin I (TNNI2); test: Muscle damage biomarker fast skeletal muscle troponin I in adults with BMD (ELISA / SOMAscan); type: in vivo, human
Experimental: as §1, §4, §5, §6, §7

[6] = test system: myoglobin; test: Muscle damage biomarker myoglobin in adults with BMD; type: in vivo, human
Experimental: as §2, §5

[7] = test system: adults with BMD; test: North Star Ambulatory Assessment (NSAA) in adults with BMD; type: in vivo, human; settings: for NSAA outcome: 20 mg group
Source text: After 4 months of Compound 1 dosing, NSAA increased by an average of 1.17 points compared to pre-therapy baseline. […] The NSAA improvements observed after only 4 months of Compound 1 dosing differ from trajectories observed in the natural history study reported by Bello et al. (2016), one of the most comprehensively characterized BMD cohorts, in which the yearly decline was 1.22 NSAA points.
NSAA scores were also quantified based on FIGS. 9A-9C. Compound 1 stabilized NSAA scores by rescuing the natural history trend by about 1.6 points, and led to a trend towards an improvement in the scores. […] In comparison, the expected natural history decline in untreated patients is around −1.2 to −1.3 points.
Therefore, a lower exposure of Compound 1 (e.g., 10 mg) may have a more desired functional benefit.

[8] = test system: adults with BMD; test: Functional tests (velocity, muscle strength) in adults with BMD; type: in vivo, human
Source text: FIG. 7 depicts increases in functional measures such; walk/run velocity, stair climb velocity, and grip strength in BMD patients at two and four months following the initial administration of Compound 1 in comparison to baseline measurements.
FIGS. 12A-12F depict the functional evaluation after the treatment of Compound 1. FIG. 12A depicts the average 10 m velocity in different dosing regimens. All p-values NS with a 7% decrease at 12 months. Last observation carried forward (all N=12, except for 2 missing values, month 4 and 8). FIG. 12B depicts the average 100 meter velocity in different dosing regimens. All p-values NS with 0% change at 12 months. Last observation carried forward (all N=12, except for 2 missing values, month 4 and 8). FIG. 12C depicts the average 4-stair climb time velocity in different dosing regimens. All p-values NS except that p value for 12 months was 0.016, which was 13% decrease at 12 months. FIG. 12D depicts the average maximum grip strength in different dosing regimens. p-values <0.05 at 4, 6, 8 month and NS at 12 months. There was a 8% decrease at 12 months. FIG. 12E depicts the average maximum knee extension strength in different dosing regimens. P-values <0.05 at 4, 8, 12 month. There was a 25% decrease at 12 months. FIG. 12F depicts the maximum elbow flexion strength in different dosing regimens. All p-values NS, and there was no change at 12 months.
Furthermore, functional tests were carried out to evaluate the functional improvements of muscle in the participants resulted from Compound 1. […] Different parameters of muscle strength were also quantified and evaluated in FIGS. 12D-12F.

[9] = test system: adults with BMD; test: Self-reported pain score in adults with BMD; type: in vivo, human
Source text: FIG. 8 depicts a decrease in the self-reported pain score in BMD patients at two and four months following the initial administration of Compound 1.
BMD individuals usually report more diffuse pain on spine and calves, See Jacques M F et al., Plos ONE (2019). Self-reported pain evaluation was collected and quantified in FIG. 13. […] Therefore, Compound 1 has shown to reduce pain associated with BMD.

[10] = test system: muscle injury proteins; test: SOMAscan plasma proteomics, muscle injury proteins, BMD participants; type: in vivo, human
Experimental: as §6
In this study, SOMAscan was correlated to CK and TNNI2 to allow for direct conversion to absolute concentrations as well as used to identify large-scale proteomic differences between short- and long-term treatment with Compound 1. […] FIG. 14C illustrates SOMAscan-quantified CK and TNNI2 in blood. […]

[11] = test system: proinflammatory cytokines and chemokines, anti-inflammatory interleukins; test: SOMAscan plasma proteomics, inflammatory proteins, BMD participants; type: in vivo, human
Experimental: as §6
FIG. 14G and FIG. 14H illustrate favorable shift in inflammatory biomarkers with long-term treatment. […] The observed protein concentration changes after 6-12 months were consistent across study participants (FIG. 14H).

[12] = Preclinical experiments, target muscle concentration; type: in vivo; settings: from preclinical experiments
Experimental: as §3

[13] = after 4 months, laboratory assay
[14] = short-term treatment (1-2 months), relative to pre-dose baseline
[15] = two and four months after initial administration (FIG. 7)

Mean AUC for the Compound 1 Plasma PK levels ([1]; 10 mg dose): 1,454 | Mean AUC for the Compound 1 Plasma PK levels ([1]; 15 mg dose): 2,299 | Mean AUC for the Compound 1 Plasma PK levels ([1]; 20 mg dose): 2,293 | Plasma concentration relative to target exposures predicted from preclinical models ([1]; 20 mg/day, patients with high exposures): more than 4 fold | Kp ([2]; human, muscle, read-out: Enrichment in muscle compared to plasma): ~60 | Plasma concentration equating to target muscle concentration ([2]; in BMD, using Phase 1 MAD muscle biopsy data): 0.015 to 0.07 µg/mL | Muscle strength effect ([8]; some participants from the 20 mg group (FIGS. 12C-12F)): muscle strength weakness | Target muscle concentration of Compound 1 [12]: 1,000-4000 ng/g
Structure (SMILES): O=c1ccc(-c2cnc(OCC(F)(F)F)nc2)nn1Cc1cncc(F)c1 [Compound 1]
Most common adverse events ([3]; 4-month interim): dizziness, drowsiness, and headache | Tolerability ([3]; 4-month interim, 10 mg for 2 months then 15 mg daily oral at night, twelve adults with BMD): well-tolerated in all participants with no discontinuations or dose reductions | Tolerability ([3]; 12-month results, 10, 15 and 20 mg doses): well tolerated at all doses without any severe adverse events | Change of creatine kinase (CK) level ([4]; 10 mg dose): near maximal decreases | Average reduction of CK [4, 13]: 29% | Change of creatine kinase (CK) level ([4]; different dosing regimens up to 12 months (FIG. 10A)): sustained decrease | SOMAscan-quantified circulating CK [4, 14]: reduced by short-term treatment | Change of TNNI2 level ([5]; 10 mg dose): near maximal decreases | Average reduction of fast skeletal muscle troponin I [5, 13]: 73% | Patients reaching fast skeletal muscle troponin I levels of unaffected adults ([5]; after 4 months, twelve participants): four patients achieving levels observed in unaffected adults | Change of TNNI2 level ([5]; different dosing regimens up to 12 months (FIG. 10B)): sustained decrease | SOMAscan-quantified circulating TNNI2 ([5]; longer-term treatment timepoints): reduced to nearly healthy levels | SOMAscan-quantified circulating TNNI2 [5, 14]: reduced by short-term treatment | Change of myoglobin level ([6]; 10 mg dose): near maximal decreases | Change of myoglobin level ([6]; different dosing regimens up to 12 months (FIG. 10C)): sustained decrease | NSAA outcome ([7]; participants under high exposures (negative changes in NSAA)): less optimal outcomes | NSAA outcome ([7]; participants with the lower exposures): stable or the best improving NSAA scores | Participants with the same or better NSAA scores ([7]; 12-month group (FIG. 11C)): about 75% | NSAA rescue of the natural history trend ([7]; 12-month results (FIG. 11A)): about 1.6 points | Average NSAA increase compared to pre-therapy baseline ([7]; after 4 months of dosing): 1.17 points | Participants with functional improvement or no decline on NSAA relative to baseline ([7]; after 4 months of dosing): nine of the twelve | Deterioration in 10 m velocity ([8]; 12-month results (FIG. 12A)): no statistically significant deterioration | Deterioration in 100 meter velocity ([8]; 12-month results (FIG. 12B)): no statistically significant deterioration | Deterioration in 4-stair climb time velocity ([8]; 12-month results (FIG. 12C)): no statistically significant deterioration | Decrease in average 4-stair climb time velocity ([8]; at 12 months, p 0.016 (FIG. 12C)): 13% | Decrease in average maximum knee extension strength ([8]; at 12 months, p <0.05 (FIG. 12E)): 25% | Decrease in average 10 m velocity ([8]; at 12 months, p NS (FIG. 12A)): 7% | Change in average 100 meter velocity ([8]; at 12 months, p NS (FIG. 12B)): 0% | Decrease in average maximum grip strength ([8]; at 12 months, p NS (FIG. 12D)): 8% | Change in maximum elbow flexion strength ([8]; at 12 months, p NS (FIG. 12F)): no change | Grip strength versus baseline [8, 15]: increases | Stair climb velocity versus baseline [8, 15]: increases | Walk/run velocity versus baseline [8, 15]: increases | Self-reported pain scores ([9]; after 12 months of treatment (FIG. 13)): positive trend | Self-reported pain score ([9]; two and four months after initial administration (FIG. 8)): decrease | Muscle injury proteins (SOMAscan) ([10]; long-term treatments (6-12 months)): stable levels or further decreases | Muscle injury proteins (SOMAscan) ([10]; short-term treatment (1-2 months, 10 mg)): decreased from pre-dose baseline | Proinflammatory cytokines and chemokines (SOMAscan) ([11]; after 6-12 months): very significantly reduced | Anti-inflammatory interleukins (SOMAscan) ([11]; after long-term treatment (6-12 months)): increased
